Several values for one entry are separate records, joined by “and”; a condition that tells them apart may be missing. Equal entries are not always repeated. Where two headings read alike, the source gives them in different places. Blank lines part the entries; values can stand above or below the compound they belong to. Residues, ends and D or L forms follow the SMILES beside them. *: point of attachment. Cbz = O=C(OCc1ccccc1)*
Experiments:
BRD4/CRBN interaction = target: T1, BRD4/CRBN interaction (Homo sapiens, UniProt O60885+Q96SW2); assay: SIMPL2 assay CRBN/BRD4 (PROTAC); format: cell-based; details: MG132 1 μM, ARV-825 3 h
T1 construct: β10-IN (tNLuc β10 peptide + GP41-1 split intein N fragment) (N); V5; IC-β9 (GP41-1 split intein C fragment + tNLuc β9 peptide) (N); FLAG; expressed in transfected cells
T1 sequence (Q96SW2 whole entry, the tested form may be a part): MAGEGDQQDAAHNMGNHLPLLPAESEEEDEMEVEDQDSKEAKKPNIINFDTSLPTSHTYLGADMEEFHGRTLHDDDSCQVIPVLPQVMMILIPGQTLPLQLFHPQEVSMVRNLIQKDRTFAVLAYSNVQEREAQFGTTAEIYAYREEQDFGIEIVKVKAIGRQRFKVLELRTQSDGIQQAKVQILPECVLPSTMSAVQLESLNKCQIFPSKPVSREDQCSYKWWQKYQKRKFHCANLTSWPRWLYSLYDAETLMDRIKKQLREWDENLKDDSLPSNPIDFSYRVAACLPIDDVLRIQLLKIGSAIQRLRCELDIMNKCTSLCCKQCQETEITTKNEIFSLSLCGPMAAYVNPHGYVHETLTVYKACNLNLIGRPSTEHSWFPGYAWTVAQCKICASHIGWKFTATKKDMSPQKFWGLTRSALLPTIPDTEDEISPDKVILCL
T1 sequence (Q16531 whole entry, further chain, the tested form may be a part): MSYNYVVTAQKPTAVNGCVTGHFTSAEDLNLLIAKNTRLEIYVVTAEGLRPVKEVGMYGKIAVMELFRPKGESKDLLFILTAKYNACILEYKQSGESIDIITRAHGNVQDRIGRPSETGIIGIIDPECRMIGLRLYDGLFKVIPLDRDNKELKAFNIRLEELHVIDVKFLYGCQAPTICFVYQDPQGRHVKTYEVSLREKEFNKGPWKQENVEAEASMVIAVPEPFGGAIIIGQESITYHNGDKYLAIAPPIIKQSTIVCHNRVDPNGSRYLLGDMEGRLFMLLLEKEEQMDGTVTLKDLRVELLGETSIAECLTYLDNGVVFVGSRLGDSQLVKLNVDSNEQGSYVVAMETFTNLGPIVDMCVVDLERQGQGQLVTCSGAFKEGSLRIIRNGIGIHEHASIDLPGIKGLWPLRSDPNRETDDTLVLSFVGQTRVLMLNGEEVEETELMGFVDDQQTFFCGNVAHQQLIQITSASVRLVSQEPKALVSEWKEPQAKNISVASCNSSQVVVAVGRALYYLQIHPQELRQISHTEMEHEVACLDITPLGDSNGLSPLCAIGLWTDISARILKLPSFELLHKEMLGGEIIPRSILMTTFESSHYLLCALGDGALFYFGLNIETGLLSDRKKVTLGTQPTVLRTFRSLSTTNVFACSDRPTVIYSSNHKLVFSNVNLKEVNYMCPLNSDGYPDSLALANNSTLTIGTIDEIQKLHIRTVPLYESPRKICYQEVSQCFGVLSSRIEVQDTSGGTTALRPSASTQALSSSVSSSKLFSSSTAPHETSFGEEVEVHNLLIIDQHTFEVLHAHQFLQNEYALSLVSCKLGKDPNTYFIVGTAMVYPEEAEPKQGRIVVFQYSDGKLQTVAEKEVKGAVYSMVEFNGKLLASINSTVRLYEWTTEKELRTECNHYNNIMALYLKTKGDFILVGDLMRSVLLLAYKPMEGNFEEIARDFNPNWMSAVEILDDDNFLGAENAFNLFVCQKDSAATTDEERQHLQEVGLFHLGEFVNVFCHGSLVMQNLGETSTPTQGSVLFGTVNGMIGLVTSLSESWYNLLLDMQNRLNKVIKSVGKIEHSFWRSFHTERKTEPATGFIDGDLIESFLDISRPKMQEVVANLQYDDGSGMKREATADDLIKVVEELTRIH

FRB/FKBP1A interaction [1] = target: T2, FRB/FKBP1A interaction (Homo sapiens, UniProt P42345+P62942); parameters: method as in previous study; details: replicates 1-4, ref previous study, cited from earlier work; for ELISA signal (Fig. EV1B): IN/IC format; for ELISA_CIC signal (Fig. EV1C): NIN/IC format
T2 sequence (P42345 2012-2144 limits assumed): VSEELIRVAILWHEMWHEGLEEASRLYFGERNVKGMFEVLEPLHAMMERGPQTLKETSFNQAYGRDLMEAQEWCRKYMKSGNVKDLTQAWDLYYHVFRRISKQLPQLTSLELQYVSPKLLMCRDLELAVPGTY
T2 sequence (P62942 whole entry): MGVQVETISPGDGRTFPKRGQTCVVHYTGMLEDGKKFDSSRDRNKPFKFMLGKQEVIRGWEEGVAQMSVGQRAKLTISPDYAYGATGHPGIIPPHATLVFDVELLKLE

FRB/FKBP1A interaction [2] = target: T2, FRB/FKBP1A interaction; assay: NanoBiT assay, rapamycin-mediated FRB/FKBP1A interaction; format: cell-based; details: 2 h, expt 1-4
FRB/FKBP1A interaction [3] = target: T2, FRB/FKBP1A interaction; assay: SIMPL2 assay, rapamycin-mediated FRB/FKBP1A interaction; details: for SIMPL2 signal (Fig. EV1B): IN/IC format, replicates 1-4; for SIMPL2(%) (Fig. EV1C): NIN/IC format, replicates 1-3; for SIMPL2 signal (Fig. 1D source data): 2 h, expt 1-4

SMILES: CC(C)C[C@@H](C=O)NC(=O)[C@H](CC(C)C)NC(=O)[C@H](CC(C)C)NC(=O)OCc1ccccc1 [MG132] (Cbz-Leu-Leu-Leu-aldehyde)
effect of MG132 co-treatment on ARV-825 SIMPL2 signals (BRD4/CRBN interaction): profoundly enhanced

SIMPL2 signal (Fig. EV1B) (FRB/FKBP1A interaction [3]; Rapa 0.0508 nM): 1.191 and 2.558 and 1.039 and 2.309
SIMPL2 signal (Fig. EV1B) (FRB/FKBP1A interaction [3]; Rapa 0.152 nM): 2.258 and 4.019 and 1.902 and 3.528
SIMPL2 signal (Fig. EV1B) (FRB/FKBP1A interaction [3]; Rapa 0.457 nM): 5.806 and 9.209 and 5.031 and 7.8055
SIMPL2(%) (Fig. EV1C) (FRB/FKBP1A interaction [3]; Rapa 0.00188 nM): 0.8086% (2×) and 0.8386%
SIMPL2(%) (Fig. EV1C) (FRB/FKBP1A interaction [3]; Rapa 0.00565 nM): 0.599% and 0.6888% and 0.7487%
SIMPL2(%) (Fig. EV1C) (FRB/FKBP1A interaction [3]; Rapa 0.0508 nM): 0.9284% and 1.198% and 0.7188%
SIMPL2(%) (Fig. EV1C) (FRB/FKBP1A interaction [3]; Rapa 0.152 nM): 1.108% and 1.6472% and 0.8685%
SIMPL2(%) (Fig. EV1C) (FRB/FKBP1A interaction [3]; Rapa 0.457 nM): 4.972% and 3.534% and 2.636%
SIMPL2(%) (Fig. EV1C) (FRB/FKBP1A interaction [3]; Rapa 1.372 nM): 23.3303% and 15.2441% and 11.9197%
SIMPL2(%) (Fig. EV1C) (FRB/FKBP1A interaction [3]; Rapa 4.115 nM): 44.1749% and 37.1968% and 29.3801%
SIMPL2(%) (Fig. EV1C) (FRB/FKBP1A interaction [3]; Rapa 37.037 nM): 91.9736% and 88.0503% and 89.0686%
SIMPL2(%) (Fig. EV1C) (FRB/FKBP1A interaction [3]; Rapa 111.111 nM): 100.449% and 91.6442% and 102.935%
SIMPL2(%) (Fig. EV1C) (FRB/FKBP1A interaction [3]; Rapa 333.333 nM): 113.267% and 99.5508% and 95.867%
SIMPL2(%) (Fig. EV1C) (FRB/FKBP1A interaction [3]; Rapa 1000 nM): 95.5076% and 93.0518% and 96.2564%
SMILES: CO[C@H]1C[C@@H]2CC[C@@H](C)[C@@](O)(O2)C(=O)C(=O)N2CCCC[C@H]2C(=O)O[C@H]([C@H](C)C[C@@H]2CC[C@@H](O)[C@H](OC)C2)CC(=O)[C@H](C)/C=C(\C)[C@@H](O)[C@@H](OC)C(=O)[C@H](C)C[C@H](C)/C=C/C=C/C=C/1C [rapamycin, Rapamycin]
ELISA signal (Fig. EV1B) (FRB/FKBP1A interaction [1]; Rapa 0.316 nM): 14.411 and 5.166 and 5.566 and 4.9879
ELISA signal (Fig. EV1B) (FRB/FKBP1A interaction [1]; Rapa 1 nM): 5.323 and 5.028 and 5.963 and 6.1023
ELISA signal (Fig. EV1B) (FRB/FKBP1A interaction [1]; Rapa 3.162 nM): 8.457 and 7.647 and 8.056 and 8.736
ELISA signal (Fig. EV1B) (FRB/FKBP1A interaction [1]; Rapa 10 nM): 15.9974 and 15.1146 and 16.574 and 16.0467
ELISA signal (Fig. EV1B) (FRB/FKBP1A interaction [1]; Rapa 31.623 nM): 37.8238 and 37.9493 and 40.1437 and 41.1072
ELISA signal (Fig. EV1B) (FRB/FKBP1A interaction [1]; Rapa 100 nM): 80.3098 and 67.0371 and 79.2492 and 77.5358
ELISA signal (Fig. EV1B) (FRB/FKBP1A interaction [1]; Rapa 316.228 nM): 106.072 and 95.5962 and 92.0797 and 90.9967
ELISA signal (Fig. EV1B) (FRB/FKBP1A interaction [1]; Rapa 1000 nM): 102.194 and 105.027 and 90.2049 and 93.6363
ELISA_CIC signal (Fig. EV1C) (FRB/FKBP1A interaction [1]; Rapa 0.3 nM): 3.444 and 2.886 and 2.936 and 2.873
ELISA_CIC signal (Fig. EV1C) (FRB/FKBP1A interaction [1]; Rapa 1 nM): 3.091 and 2.372 and 3.062 and 3.035
ELISA_CIC signal (Fig. EV1C) (FRB/FKBP1A interaction [1]; Rapa 3 nM): 3.502 and 3.836 and 3.666 and 4.333
ELISA_CIC signal (Fig. EV1C) (FRB/FKBP1A interaction [1]; Rapa 10 nM): 6.943 and 6.073 and 6.559 and 6.143
ELISA_CIC signal (Fig. EV1C) (FRB/FKBP1A interaction [1]; Rapa 30 nM): 20.4969 and 16.4946 and 19.9923 and 21.7284
ELISA_CIC signal (Fig. EV1C) (FRB/FKBP1A interaction [1]; Rapa 100 nM): 72.9918 and 58.0659 and 78.6932 and 64.2948
ELISA_CIC signal (Fig. EV1C) (FRB/FKBP1A interaction [1]; Rapa 300 nM): 105.102 and 112.879 and 88.9461
ELISA_CIC signal (Fig. EV1C) (FRB/FKBP1A interaction [1]; Rapa 1000 nM): 95.1776 and 93.559 and 93.0646 and 80.9326
NanoBiT signal (Fig. 1D source data) (FRB/FKBP1A interaction [2]; Rapa 0.004115 uM): 43.0075 and 49.8338 and 39.8143 and 26.5473
NanoBiT signal (Fig. 1D source data) (FRB/FKBP1A interaction [2]; Rapa 0.037037 uM): 98.7034 and 104.835 and 107.555 and 86.8025
NanoBiT signal (Fig. 1D source data) (FRB/FKBP1A interaction [2]; Rapa 0.111111 uM): 98.0138 and 85.7365 and 105.867 and 81.894
NanoBiT signal (Fig. 1D source data) (FRB/FKBP1A interaction [2]; Rapa 0.333333 uM): 102.818 and 83.4071 and 80.4272 and 114.561
NanoBiT signal (Fig. 1D source data) (FRB/FKBP1A interaction [2]; Rapa 1 uM): 95.0191 and 104.766 and 93.7327 and 91.3484
SIMPL2 signal (Fig. EV1B) (FRB/FKBP1A interaction [3]; Rapa 1.372 nM): 16.8705 and 22.7506 and 15.2406 and 19.2387
SIMPL2 signal (Fig. EV1B) (FRB/FKBP1A interaction [3]; Rapa 4.115 nM): 40.6804 and 51.3157 and 39.8638 and 45.1426
SIMPL2 signal (Fig. EV1B) (FRB/FKBP1A interaction [3]; Rapa 37.037 nM): 89.8203 and 93.2241 and 91.2356 and 88.6383
SIMPL2 signal (Fig. EV1B) (FRB/FKBP1A interaction [3]; Rapa 111.111 nM): 100.397 and 91.658 and 100.471 and 94.6121
SIMPL2 signal (Fig. EV1B) (FRB/FKBP1A interaction [3]; Rapa 333.333 nM): 99.7113 and 97.9264 and 105.182 and 96.7419
SIMPL2 signal (Fig. EV1B) (FRB/FKBP1A interaction [3]; Rapa 1000 nM): 92.6509 and 96.5256 and 102.635 and 100.443
SIMPL2 signal (Fig. 1D source data) (FRB/FKBP1A interaction [3]; Rapa 0.004115 uM): 47.8958 and 45.8282 and 46.7693 and 41.1245
SIMPL2 signal (Fig. 1D source data) (FRB/FKBP1A interaction [3]; Rapa 0.037037 uM): 84.8088 and 98.4637 and 120.48 and 94.9462
SIMPL2 signal (Fig. 1D source data) (FRB/FKBP1A interaction [3]; Rapa 0.111111 uM): 73.556 and 88.7889 and 90.3886 and 92.8218
SIMPL2 signal (Fig. 1D source data) (FRB/FKBP1A interaction [3]; Rapa 0.333333 uM): 97.7898 and 102.816 and 106.133 and 97.0409
SIMPL2 signal (Fig. 1D source data) (FRB/FKBP1A interaction [3]; Rapa 1 uM): 104.171 and 101.443 and 85.3933 and 107.112
